{
  "source": "patent US4824669A",
  "about": "“Formulations of coenzyme Q10 for intravenous use” (Board of Regents, The University of Texas System, priority 1987, dated 1989)",
  "key": {"[1]": {"assay": "blood levels on daily oral administration of CoQ10 capsules to patients", "type": "in vivo, human", "conditions": "if a blood level of 3 μg/ml of whole blood is achieved on oral therapy", "experimental": "It is known from the existing clinical data from the daily oral administration of 100 mg of CoQ10 to patients (3 capsules of 33.3 mg each in soybean oil), that blood levels in the range of about 2-4 μg/ml whole blood may be achieved. These blood levels on daily oral administration of 3 capsules vary between about 1.5 and 4 μg/ml whole blood, depending upon the initial control level, the variation of oral absorption, patient compliance, etc. If a blood level of 3 μg/ml of whole blood is achieved on therapy, the amount of CoQ10 in the total blood volume would be about 15 mg. The gastrointestinal absorption of CoQ10 from 3 capsules/day is about 15% or 15-20% according to Lucker et al. (citation under Background of the Invention). However, as mentioned earlier herein, oral administration of CoQ10 is undependable and sometimes difficult."}, "[2]": {"assay": "visible separation / stability of CoQ10 in commercial fat emulsions", "type": "physicochemical", "experimental": "A preferred technique of preparing formulations of the present invention involved adding 1 ml of a fat emulsion such as Intralipid, Liposyn, Soyacal, and Travemulsion to each of three tubes. With a microsyringe, 1 μl of soybean oil containing 30 μg, 15 μg and 7.5 μg of CoQ10, respectively, was added to each of the three tubes containing 1 ml the fat emulsion. The microliter of soybean oil containing these three amounts of CoQ10 was easily visible by the yellow color on the surface of the fat emulsion. The contents of these tubes were cooled to less than about 5° C. and were then sonicated for about 5 seconds in an ice bath. The sonicated CoQ10 -fat emulsion was then drawn into a first syringe through the syringe needle. The needle of the first syringe was then connected to the needle of a second syringe. The CoQ10 -fat emulsion was then passed back and forth through the needles from the first syringe to the second syringe, and this mixing was repeated about 10 times. The needles of the two syringes were connected through a rubber stopper or a tubing, which sufficed for this laboratory scale preparation."}, "[3]": {"assay": "blood CoQ10 levels expected after intravenous administration of CoQ10-fat emulsions", "type": "in vivo, human", "conditions": "i.v., control 5 mg", "experimental": "The intravenous formulations of the present invention may be used, for example, to introduce 15 mg, 10 mg and 5 mg of CoQ10 into the total body blood volume by intravenous administration of about 500 ml containing 30 μg/ml, 15 μg/ml and 7.5 μg/ml, respectively, of CoQ10. On the basis that the control blood level of CoQ10 /total body volume is 5 mg, then the total body volume would contain 20 mg, 15 mg, and 10 mg, respectively, after the intravenous administration of the three formulations.\nThese three particular exemplary formulations of the present invention will allow the introduction of CoQ10 into the blood of patients to levels of 2, 3 and 4 μg/ml, respectively, for a total amount of CoQ10 /total body volume of blood of, for example, about 10, 15 and 20 mg, respectively."}, "[4]": {"conditions": "oral, cited from earlier work; for absorption (in words): human subjects"}, "[5]": {"conditions": "100 mg daily (3 capsules of 33.3 mg in soybean oil), patients; cited from earlier work"}, "[6]": {"conditions": "oral, coronary artery by-pass graft surgery; Sunamori et al.; cited from earlier work"}, "[7]": {"conditions": "soybean oil in soft gelatin capsules; cited from earlier work"}, "[8]": {"conditions": "clinical use; cited from earlier work"}, "[9]": {"conditions": "solid particle dispersions in aqueous medium; cited from earlier work"}},
  "note": "Like-named read-outs stand apart in the source and are kept apart here.",
  "data": [
    {"compound": "COC1=C(OC)C(=O)C(C/C=C(\\C)CC/C=C(\\C)CC/C=C(\\C)CC/C=C(\\C)CC/C=C(\\C)CC/C=C(\\C)CC/C=C(\\C)CC/C=C(\\C)CC/C=C(\\C)CCC=C(C)C)=C(C)C1=O", "note": "[CoQ10, 2,3-dimethoxy-5-methyl-6-decaprenyl benzoquinone]", "values": [
      {"measurement": "amount of CoQ10 in the total blood volume", "setting": "[1]", "value": "about 15 mg"},
      {"measurement": "separation of CoQ10 from the emulsion", "setting": "[2]; 30, 15 and 7.5 μg/ml of commercial fat emulsion, sonicated and passed through syringe needles", "value": "did not visibly separate to the surface"},
      {"measurement": "stability of emulsions at high CoQ10 level", "setting": "[2]; CoQ10 levels above about 30 μg/ml", "value": "tend to be unstable"},
      {"measurement": "stability of simple combination with commercial fat emulsion", "setting": "[2]; simple combination of CoQ10 with one of the commercial fat emulsions", "value": "unstable formulations from which the CoQ10 would too readily separate"},
      {"measurement": "CoQ10 in total body blood volume after intravenous administration", "setting": "[3]; about 500 ml containing 7.5 μg/ml", "value": 10, "unit": "mg"},
      {"measurement": "CoQ10 in total body blood volume after intravenous administration", "setting": "[3]; about 500 ml containing 30 μg/ml", "value": 20, "unit": "mg"},
      {"measurement": "absorption (in words)", "setting": "[4]", "value": "very slow absorption"},
      {"measurement": "absorption (in words)", "setting": "[4]; listed as coenzyme Q10", "value": "slow and inefficient"},
      {"measurement": "overall absorption of orally administered CoQ10", "setting": "[4]; human, Lucker et al.", "value": "10-20%"},
      {"measurement": "orally administered dose recovered from the feces", "setting": "[4]; study period of 10 days", "value": "≤ 62", "unit": "%"},
      {"measurement": "blood levels on daily oral administration", "setting": "[5]", "value": "2-4 μg/ml whole blood"},
      {"measurement": "tissue concentrations of CoQ10 (in words)", "setting": "[6]", "value": "failed to allow satisfactory tissue concentrations of CoQ10"},
      {"measurement": "stability in encapsulated soybean oil", "setting": "[7]", "value": "up to 6 years"},
      {"measurement": "clinical safety record", "setting": "[8]", "value": "clinical record of safety of over a decade"},
      {"measurement": "settling on standing", "setting": "[9]", "value": "particles containing CoQ10 fall to the bottom of the container"}
    ]}
  ]
}
